According to patent US10130611B2, “Use of benzo-heterocycle derivatives for preventing and treating cancer or for inhibiting cancer metastasis” (MEDICINAL BIOCONVERGENCE RESEARCH CENTER, priority 2009, dated 2018):
Entries after “also recorded” stand apart in the source; their conditions may differ.

Legend:
MRS-AIMP3 = target: T1, MRS-AIMP3 (Homo sapiens, UniProt P56192); assay: Yeast two hybrid specificity test, LexA-MRS/B42-AIMP3 pair; type: cell-based; conditions: compound at 50 μg/ml, DMSO control 1.4732
T1 construct: expressed in transfected cells; host or cells: yeast
T1 sequence (P56192 1-900): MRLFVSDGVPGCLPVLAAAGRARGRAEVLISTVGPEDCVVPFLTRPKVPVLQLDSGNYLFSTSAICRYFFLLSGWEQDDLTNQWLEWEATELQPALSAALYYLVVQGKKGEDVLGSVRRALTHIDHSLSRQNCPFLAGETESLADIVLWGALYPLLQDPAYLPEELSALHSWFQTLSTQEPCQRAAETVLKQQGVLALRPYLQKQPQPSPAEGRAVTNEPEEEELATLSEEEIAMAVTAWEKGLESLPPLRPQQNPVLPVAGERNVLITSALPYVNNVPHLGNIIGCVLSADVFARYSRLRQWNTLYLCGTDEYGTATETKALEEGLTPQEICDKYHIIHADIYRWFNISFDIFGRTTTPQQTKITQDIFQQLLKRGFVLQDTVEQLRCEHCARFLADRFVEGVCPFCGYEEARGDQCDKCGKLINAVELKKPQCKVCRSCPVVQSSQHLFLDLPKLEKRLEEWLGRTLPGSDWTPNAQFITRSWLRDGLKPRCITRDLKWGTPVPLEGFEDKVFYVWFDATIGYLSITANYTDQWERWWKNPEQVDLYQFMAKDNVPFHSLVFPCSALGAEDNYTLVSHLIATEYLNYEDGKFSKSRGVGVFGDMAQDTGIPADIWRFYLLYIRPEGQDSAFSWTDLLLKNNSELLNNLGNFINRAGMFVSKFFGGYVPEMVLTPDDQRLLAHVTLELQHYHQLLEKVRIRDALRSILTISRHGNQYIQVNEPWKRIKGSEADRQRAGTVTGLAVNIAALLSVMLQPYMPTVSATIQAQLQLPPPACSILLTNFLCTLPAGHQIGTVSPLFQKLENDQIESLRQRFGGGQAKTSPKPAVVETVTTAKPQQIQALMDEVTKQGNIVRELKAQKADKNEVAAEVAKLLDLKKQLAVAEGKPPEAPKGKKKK
Method: On the compound of the present invention obtained by screening a library of compounds, the extent of inhibition on the interaction between KRS and laminin receptor (67LR) was determined by a yeast two hybrid assay, as described below. KRS, LR, AIMP2, AIMP3 and MRS were cloned at LexA vector (clontech) and B42 vector (clontech) each so as to produce required vectors. From among the vectors, LexA-KRS vector and B42-LR vector were co-transformed into yeast EGY/SH cells, and then the yeast cells were diluted to an absorbance (540 nm wavelength) of 0.2 in galactose medium not containing uracil (Ura), histidine (His), tryptophane (Trp) and leucine (Leu), and placed in an amount of 200 u in a 96 well plate. 1 μl of each compound at a concentration of 10 mg/ml was placed in each well, incubated for 6 days, and the absorbance was measured at 540 nm. […] The inhibitory specificity of the selected compound was tested by using two different interaction pairs such as LexA-KRS/B42-AIMP2 and LexA-MRS/B42-AIMP3. […]

[1] = system: Mouse mammary carcinoma 4T-1 cells; assay: In vivo cancer metastasis experiment; parameters: species or system Balb/c mice; conditions: mice, 30 mg/kg once a day for 3 weeks
Method: On MMP2 activity (FIG. 37) and cell migration (FIGS. 38 and 39), KL1-dose-dependent effect was measured. For the test on the cell migration, the cells were treated with KL1 for 8 hours. In FIG. 40, in order to see the effect of KL1 on protein synthesis of cells, A549 cells were treated with KL1 at indicated concentrations, and starved in methionine-free medium. Then, [^35S] methionine was added thereto for 2 hours. Then, the cells were incubated in complete medium for 4 hours, and the level of added methionine was measured by a scintillation counter. In FIG. 41, KL1-dose-dependent cytotoxicity was measured by using A549 cells. In FIG. 42, the effect of KL1 on cancer metastasis was measured according to the method as described above. In each group, 6 mice were included, and KL1 was abdominally injected for 3 weeks, in a dose of 30 mg/kg once a day. Then, the mice were sacrificed. The metastasized tumor nodules over 1 mm in diameter were counted, and their average was calculated (left). […]
Mouse mammary carcinoma 4T-1 cells were transfected with si-KRS, si-DRS or si-control, and incubated for 24 hours. […] The growth of a tumor was monitored by measuring a tumor size three times per week. The whole body weights were also simultaneously measured. […] The number and size of metastatic tumor nodules in lungs were measured, and tumor nodules of larger than 1 mm in diameter were separately recorded. […]

CCC(C(=O)O)n1/c(=N/C(=O)c2ccc(C)cc2)sc2ccccc21 (stereo not drawn) [Compound of formula 15, 2-[2-(4-Methyl-benzoylimino)-benzothiazol-3-yl]-butyric acid]
MRS-AIMP3 (yeast growth, OD level) (MRS-AIMP3): 1.2443 | number of metastasized nodules ([1]; abdominally injected, lung nodules over 1 mm in diameter): significantly reduced | primary tumor growth (weight and size) ([1]; KL1 treated vs non-treated group, listed as KL1, 30 mg/kg): no significant difference in weight and size; also recorded: did not affect
